Patent US6451803B1, “N-acyl and n-aroyl aralkyl amides useful in treating seritonergic disorders” (Pfizer INC, priority 1998, dated 2002)

melting point: 110 to 120 °C
Compound: CN1CCN(c2ccccc2CCNC(=O)c2ccc(Cl)c(Cl)c2)CC1.Cl.O (hydrate or solvate)
